Data published in publication PMC6792352, “Limited Chemical Structural Diversity Found to Modulate Thyroid Hormone Receptor in the Tox21 Chemical Library” (Environmental Health Perspectives, 2019).
Structures can show the parent of a compound that is named as a salt.

assay: in vitro; conditions: rat, gh3-tre-luc cells, AC50 (uM) modified / 1000

Compound	CC50 at 24 h [µM]
O=S(=O)(O)c1ccc2[nH]c(-c3ccccc3)nc2c1 [Ensulizole]	> 90
COc1ccccc1OCC(O)CN1CCN(CC(=O)Nc2c(C)cccc2C)CC1 (stereo not drawn) [Ranolazine]	> 50
CCCCCCCCCC=O [Decanal]	> 90
CC(=O)Oc1cccc(C)c1 [m-Cresyl acetate]	> 50
Nc1nc(CC(=O)O)cs1 [2-Amino-4-thiazoleacetic acid]	> 90
O=CO [Formic acid, potassium salt]	> 5
Cc1cccc(C(C)(C)C)c1O [2-tert-Butyl-6-methylphenol]	> 90
CSSc1ccoc1C [Methyl 2-methyl-3-furyl disulfide]	> 80
CCC(C=O)CC [2-Ethylbutyraldehyde]	> 90
OCCC1CCCCN1 (stereo not drawn) [2-?Piperidineethanol]	> 90
CCCN(CCC)C(=O)SCC [EPTC]	> 100
N[C@@H](Cc1c[nH]c2ccc(O)cc12)C(=O)O [L-5-Hydroxytryptophan]	> 90
Nc1ccc(N)c2ccccc12 [1,4-Naphthalenediamine]	> 90
O=c1[nH]c2ccccc2n1CCCN1CCN(C(c2ccccc2)c2ccccc2)CC1 [Oxatomide]	20.3
CCC[N+]1(C)CCCCC1 [1-Methyl-1-propylpiperidinium bromide]	> 90
CC(=O)N(CC(O)CO)c1c(I)c(C(=O)NCCO)c(I)c(C(=O)NCC(O)CO)c1I (stereo not drawn) [Ioxilan]	> 50
CCCO[Si](OCCC)(OCCC)OCCC [Tetrapropyl orthosilicate]	> 90
Cc1cc(O)ccc1N [4-Amino-m-cresol]	29.9
Cc1nnc2n1-c1sc(CCC(=O)N3CCOCC3)cc1C(c1ccccc1Cl)=NC2 [Apafant]	> 50
Cc1cc(C)c(C)cc1C [1,2,4,5-Tetramethylbenzene]	> 90
C#CCC(Cc1cnc2nc(N)nc(N)c2n1)c1ccc(C(=O)N[C@@H](CCC(=O)O)C(=O)O)cc1 (stereo partly drawn) [Pralatrexate]	> 50
CC(=O)CC(=O)Nc1ccc(C)cc1C [N-(2,4-Dimethylphenyl)-3-oxobutanamide]	> 90
CC(CC(=O)Cl)CC(C)(C)C (stereo not drawn) [3,5,5-Trimethylhexanoyl chloride]	> 90
CCOC(=O)CCC(=O)O[C@H]1[C@H](O[C@@H]2[C@@H](C)[C@H](O[C@H]3C[C@@](C)(OC)[C@@H](O)[C@H](C)O3)[C@@H](C)C(=O)O[C@H](CC)[C@@](C)(O)[C@H](O)[C@@H](C)C(=O)[C@H](C)C[C@@]2(C)O)O[C@H](C)C[C@@H]1N(C)C [Erythromycin ethylsuccinate]	> 50

Compound	CC50 at 24 h [µM]
Cc1c(C)c([N+](=O)[O-])c(C(C)(C)C)c([N+](=O)[O-])c1C [1-tert-Butyl-3,4,5-trimethyl-2,6-dinitrobenzene]	73.9
CCCCCCCCCCCCOCC1CO1 (stereo not drawn) [Dodecyl glycidyl ether]	> 90
O=C(O)CCNC(=O)c1ccc(/N=N/c2ccc(O)c(C(=O)O)c2)cc1 [Balsalazide]	> 50
CC(COc1ccc(Oc2ccccc2)cc1)Oc1ccccn1 (stereo not drawn) [Pyriproxyfen]	> 90
Cc1ccc(C#N)cc1 [4-Methylbenzonitrile]	> 90
CN(c1nccc(=O)[nH]1)C1CCN(c2nc3ccccc3n2Cc2ccc(F)cc2)CC1 [Mizolastine]	> 50
O=c1[nH]c2ccc([S+]([O-])CCN3CCC(Cc4ccc(F)cc4)CC3)cc2o1 (stereo not drawn) [Besonprodil]	> 90
O=C(O)Cc1c[nH]c2ccccc12 [Indole-3-acetic acid]	> 90
NC(=O)c1ccc([N+](=O)[O-])cc1 [4-Nitrobenzamide]	> 90
ICCc1ccccc1 [2-Iodoethylbenzene]	> 90
O=C(Cl)c1cc(C(=O)Cl)cc(C(=O)Cl)c1 [1,3,5-Benzenetricarbonyl trichloride]	80
CC1CC(C)C(=O)C1=O (stereo not drawn) [3,5-Dimethyl-1,2-cyclopentanedione]	> 90
CS(=O)(=O)CCNCc1ccc(-c2ccc3ncnc(Nc4ccc(OCc5cccc(F)c5)c(Cl)c4)c3c2)o1 [Lapatinib]	> 50
Cc1cc2cc3c(C)cc(=O)oc3c(C)c2o1 [Trioxsalen]	> 20
O=C(Cl)c1c(Cl)c(Cl)c(C(=O)Cl)c(Cl)c1Cl [2,3,5,6-Tetrachlorobenzene-1,4-dicarbonyl dichloride]	> 90
O=S(=O)(O)c1cc(O)c2ccc(Nc3ccccc3)cc2c1 [4-Hydroxy-7-(phenylamino)naphthalene-2-sulfonic acid]	> 90
C[Si](Cl)(c1ccccc1)c1ccccc1 [Chloro(methyl)diphenylsilane]	> 90
O=C1OC2(c3ccc(O)cc3Oc3cc(O)ccc32)c2ccccc21 [Fluorescein]	> 50
CCCCNc1ccccc1 [N-Butylaniline]	> 90
O=c1c(-c2ccccc2)c1-c1ccccc1 [Diphenylcyclopropenone]	5.54
CC(C)[N+](C)(C)CC(O)COc1cccc2ccccc12 (stereo not drawn) [Pranolium chloride]	> 50
CCCCCCCCCCCCOCCCN [Laurixamine]	> 50
O=C(c1ccc(O)cc1)c1ccc(Cl)cc1 [4-Hydroxy-4'-chlorobenzophenone]	> 90
COc1ccc(N=Nc2cc(C)c(N=Nc3ccc(S(=O)(=O)O)cc3)cc2OC)cc1 [Acid Orange 156]	64.4

Compound	CC50 at 24 h [µM]
Nc1nc(=O)n([C@@H]2CS[C@H](CO)O2)cc1F [Emtricitabine]	> 50
COc1ccc(OC)c(NC(=O)CC(C)=O)c1 [N-(2,5-Dimethoxyphenyl)-3-oxobutanamide]	> 90
O=C(NCCN1CCOCC1)c1ccc(Cl)cc1 [Moclobemide]	> 50
COc1ccc(-c2coc3cc(O)cc(O)c3c2=O)cc1 [Biochanin A]	> 90
CC(C)(C)c1cc(Cc2cc(C(C)(C)C)c(O)c(C(C)(C)C)c2)cc(C(C)(C)C)c1O [4,4'-Methylenebis(2,6-di-t-butylphenol)]	> 90
O=C(CCCN1CCN2CCCC2C1)c1ccc(F)cc1 (stereo not drawn) [Azabuperone]	> 50
CCCCCCCCCC(=O)OCC [Ethyl decanoate]	> 90
Cc1nnc2n1-c1ccc(Cl)cc1C(c1ccccc1)=NC2 [Alprazolam]	> 50
O=C(CC(=O)c1ccccc1)c1ccccc1 [1,3-Diphenyl-1,3-propanedione]	> 100
NC12CC3CC(CC(C3)C1)C2 [Amantadine]	36.1
CC(=O)O[C@H]1C(=O)[C@@]2(C)[C@H]([C@H](OC(=O)c3ccccc3)[C@]3(O)C[C@H](OC(=O)[C@H](O)[C@@H](NC(=O)c4ccccc4)c4ccccc4)C(C)=C1C3(C)C)[C@]1(OC(C)=O)CO[C@@H]1C[C@@H]2O [Paclitaxel]	0.25
O=c1cccccc1O [Tropolone]	22.1
CCc1nccnc1C [3-Ethyl-2-methylpyrazine]	> 90
CCN(Cc1cccnc1)C(=O)c1cccc(Cl)c1[C@]1(C)C(=O)N(Cc2ccc(OC)cc2OC)c2ccc(Cl)cc21 [SSR126768]	9.39
CC(=O)CCC(=O)O [4-Oxopentanoic acid]	> 100
CCCCC(CC)COC(=O)CCCCCCCC(=O)OCC(CC)CCCC (stereo not drawn) [Bis(2-ethylhexyl) nonanedioate]	> 90
O=S1(=O)CCCC1 [Sulfolane]	> 90
CNC(=O)C(c1ccccc1)c1ccccc1 [N-methyl-alpha-phenylbenzeneacetamide]	> 90
Nc1ccccn1 [2-Aminopyridine]	> 90
Cc1cc2c(OCC(CNC(C)(C)C)OC(=O)c3ccccc3)cccc2[nH]1 (stereo not drawn) [Bopindolol]	42.5
CCOc1ccc2nc(N)sc2c1 [2-Amino-6-ethoxybenzothiazole]	> 90
CC1(C)C(=O)N(Cl)C(=O)N1Br [1-Bromo-3-chloro-5,5-dimethylhydantoin]	> 90
CC(=O)Nc1ccc(S(N)(=O)=O)cc1 [4'-Sulfamylacetanilide]	> 90

same assay, conditions: rat, gh3-tre-luc cells, AC50 (uM) modified / 1000, Tox21_110001=Tox21_111146; viability, 1 nM T3 present, 24 h

Compound	CC50 at 24 h [µM]
Oc1ccc(Cl)cc1Cc1ccccc1 [Clorophene]	23.9

same assay, conditions: rat, gh3-tre-luc cells, AC50 (uM) modified / 1000, Tox21_110001=Tox21_112058; viability, 1 nM T3 present, 24 h

Compound	CC50 at 24 h [µM]
O[C@H]1[C@H]2[C@H](O)CCCN2C[C@H]1O [Swainsonine]	> 50

same assay, conditions: rat, gh3-tre-luc cells, AC50 (uM) modified / 1000, Tox21_110001=Tox21_112620; viability, 1 nM T3 present, 24 h

Compound	CC50 at 24 h [µM]
CCC(=O)O[C@]1(c2ccccc2)CCN(C)C[C@H]1C [Betaprodine]	> 50

same assay, conditions: rat, gh3-tre-luc cells, AC50 (uM) modified / 1000, Tox21_110001=Tox21_112896; viability, 1 nM T3 present, 24 h

Compound	CC50 at 24 h [µM]
CC(Cc1ccccc1)NCCn1cnc2c1c(=O)n(C)c(=O)n2C (stereo not drawn) [Fenethylline hydrochloride]	> 90

same assay, conditions: rat, gh3-tre-luc cells, AC50 (uM) modified / 1000, Tox21_110001=Tox21_201417; viability, 1 nM T3 present, 24 h

Compound	CC50 at 24 h [µM]
CC(Br)C(=O)O (stereo not drawn) [2-Bromopropionic acid]	> 90

same assay, conditions: rat, gh3-tre-luc cells, AC50 (uM) modified / 1000, Tox21_110001=Tox21_202753; viability, 1 nM T3 present, 24 h

Compound	CC50 at 24 h [µM]
O=P(O)(O)CN(CP(=O)(O)O)CP(=O)(O)O [Aminotrimethylene phosphonic acid]	> 20

same assay, conditions: rat, gh3-tre-luc cells, AC50 (uM) modified / 1000, Tox21_110001=Tox21_202985; viability, 1 nM T3 present, 24 h

Compound	CC50 at 24 h [µM]
Oc1ccc(Cl)cc1Cc1ccccc1 [Clorophene]	43.2

same assay, conditions: rat, gh3-tre-luc cells, AC50 (uM) modified / 1000, Tox21_110001=Tox21_300698; viability, 1 nM T3 present, 24 h

Compound	CC50 at 24 h [µM]
CCOC(=O)COc1cc(-c2nn(C)c(OC(F)F)c2Cl)c(F)cc1Cl [Pyraflufen-ethyl]	> 90

same assay, conditions: rat, gh3-tre-luc cells, AC50 (uM) modified / 1000, Tox21_110001=Tox21_301514; viability, 1 nM T3 present, 24 h

Compound	CC50 at 24 h [µM]
CCCCOC(=O)CCC(=O)OCCCC [Dibutyl butanedioate]	> 90

same assay, conditions: rat, gh3-tre-luc cells, AC50 (uM) modified / 1000, Tox21_110001=Tox21_400046; viability, 1 nM T3 present, 24 h

Compound	CC50 at 24 h [µM]
Oc1ccc(Cl)cc1Cc1ccccc1 [Clorophene]	61.9
